Assay results: US7449447B2, “Peptidomimetic NS3-serine protease inhibitors of hepatitis C virus” (priority 2003, dated 2008)

Target: T1, HCV NS3/NS4a serine protease (Hepatitis C virus genotype 1b, UniProt P26663)
T1 construct: amino terminus of the NS3 protease domain (amino acids 3-181) with a tetrapeptide linker; made in house; host or cells: E. coli
Assay: Spectrophotometric assay for HCV protease inhibitory activity (chromogenic ester substrates)
Format: biochemical, hepatitis C virus (strain 1b)
Conditions: Ki, Table 3; rating; single chain NS4A21-32-GSGS-NS3 3-181 protease, 30° C., pH 6.5
In short: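 Single-chain NS4A(21-32)-GSGS-NS3(3-181) protease (genotype 1b) from E. coli was used at 1.3 nM in 25 mM MOPS pH 6.5 with 300 mM NaCl, 30 °C and 4% DMSO. Chromogenic ester substrate cleavage was followed as PAP release at 370 nm over 60 min. Ki was derived from vo/vi versus [I] plots assuming competitive inhibition.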

T1 sequence (P26663 1013-1207, looked up, natural form): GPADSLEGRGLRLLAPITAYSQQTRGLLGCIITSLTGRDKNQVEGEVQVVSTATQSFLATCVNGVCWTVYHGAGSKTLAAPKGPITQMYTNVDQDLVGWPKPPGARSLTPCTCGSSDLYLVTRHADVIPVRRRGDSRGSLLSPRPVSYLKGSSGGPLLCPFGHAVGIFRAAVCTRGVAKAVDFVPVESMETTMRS

CCCOc1ccc(CCNC(=O)[C@H](CC(F)F)NC(=O)[C@@H]2[C@@H]3[C@H](CN2C(=O)[C@@H](NC(=O)N[C@H](CN(C)S(C)(=O)=O)C(C)(C)C)C(C)(C)C)C3(C)C)cc1Cl [Example 299] and COc1ccc(Br)cc1CCNC(=O)[C@H](CC(F)F)NC(=O)[C@@H]1[C@@H]2[C@H](CN1C(=O)[C@@H](NC(=O)N[C@H](CN(C)S(C)(=O)=O)C(C)(C)C)C(C)(C)C)C2(C)C [Example 300] cannot be ordered by Ki: < 100 nM for the first, < 100 nM for the second.

CN(C[C@@H](NC(=O)N[C@H](C(=O)N1C[C@H]2[C@@H]([C@H]1C(=O)N[C@@H](CC(F)F)C(=O)N1Cc3ccccc3C1)C2(C)C)C(C)(C)C)C(C)(C)C)S(C)(=O)=O [Example 301] and CN(C[C@@H](NC(=O)N[C@H](C(=O)N1C[C@H]2[C@@H]([C@H]1C(=O)N[C@@H](CC(F)F)C(=O)N1CCc3ccccc3C1)C2(C)C)C(C)(C)C)C(C)(C)C)S(C)(=O)=O [Example 302] cannot be ordered by Ki: > 500 nM for the first, > 500 nM for the second.

CN(CCc1ccccc1)C(=O)[C@H](CC(F)F)NC(=O)[C@@H]1[C@@H]2[C@H](CN1C(=O)[C@@H](NC(=O)N[C@H](CN(C)S(C)(=O)=O)C(C)(C)C)C(C)(C)C)C2(C)C [Example 303] and CN(CCc1ccccn1)C(=O)[C@H](CC(F)F)NC(=O)[C@@H]1[C@@H]2[C@H](CN1C(=O)[C@@H](NC(=O)N[C@H](CN(C)S(C)(=O)=O)C(C)(C)C)C(C)(C)C)C2(C)C [Example 305] cannot be ordered by Ki: > 500 nM for the first, > 500 nM for the second.

First: CCN(Cc1ccncc1)C(=O)[C@H](CC(F)F)NC(=O)[C@@H]1[C@@H]2[C@H](CN1C(=O)[C@@H](NC(=O)N[C@H](CN(C)S(C)(=O)=O)C(C)(C)C)C(C)(C)C)C2(C)C [Example 304]
Second: CN(C[C@@H](NC(=O)N[C@H](C(=O)N1C[C@H]2[C@@H]([C@H]1C(=O)N[C@@H](CC(F)F)C(=O)NCCc1c(F)cccc1F)C2(C)C)C(C)(C)C)C(C)(C)C)S(C)(=O)=O [Example 306]
The Ki of the first is higher: > 500 nM for the first, < 100 nM for the second.

CN(C[C@@H](NC(=O)N[C@H](C(=O)N1C[C@H]2[C@@H]([C@H]1C(=O)N[C@@H](CC(F)F)C(=O)N[C@H]1C[C@H]1c1ccccc1)C2(C)C)C(C)(C)C)C(C)(C)C)S(C)(=O)=O [Example 307] and CN(C[C@@H](NC(=O)N[C@H](C(=O)N1C[C@H]2[C@@H]([C@H]1C(=O)N[C@@H](CC(F)F)C(=O)N[C@@H]1C[C@@H]1c1ccccc1)C2(C)C)C(C)(C)C)C(C)(C)C)S(C)(=O)=O [Example 308] cannot be ordered by Ki: < 100 nM for the first, < 100 nM for the second.

In the case of CC1(C)CC(=O)N(C[C@@H](NC(=O)N[C@H](C(=O)N2C[C@H]3[C@@H]([C@H]2C(=O)N[C@@H](CC(F)F)C(=O)NCCc2c(F)cccc2F)C3(C)C)C(C)(C)C)C(C)(C)C)C(=O)C1 [Example 309], the Ki is reported as < 100 nM.
